Reference: patent US20170050961A1, “IMIDAZO[1,2-A]PYRIDINES AS SOLUBLE GUANYLATE CYCLASE STIMULATORS FOR THE TREATMENT OF CARDIOVASCULAR DISEASES” (BAYER PHARMA AKTIENGESELLSCHAFT, priority 2014, published 2017)

Molecular target: T1, recombinant guanylate cyclase reporter cell line (Rattus norvegicus, UniProt P19686+P20595)
T1 construct: expressed in transfected cells
T1 sequence (P19686 1-690): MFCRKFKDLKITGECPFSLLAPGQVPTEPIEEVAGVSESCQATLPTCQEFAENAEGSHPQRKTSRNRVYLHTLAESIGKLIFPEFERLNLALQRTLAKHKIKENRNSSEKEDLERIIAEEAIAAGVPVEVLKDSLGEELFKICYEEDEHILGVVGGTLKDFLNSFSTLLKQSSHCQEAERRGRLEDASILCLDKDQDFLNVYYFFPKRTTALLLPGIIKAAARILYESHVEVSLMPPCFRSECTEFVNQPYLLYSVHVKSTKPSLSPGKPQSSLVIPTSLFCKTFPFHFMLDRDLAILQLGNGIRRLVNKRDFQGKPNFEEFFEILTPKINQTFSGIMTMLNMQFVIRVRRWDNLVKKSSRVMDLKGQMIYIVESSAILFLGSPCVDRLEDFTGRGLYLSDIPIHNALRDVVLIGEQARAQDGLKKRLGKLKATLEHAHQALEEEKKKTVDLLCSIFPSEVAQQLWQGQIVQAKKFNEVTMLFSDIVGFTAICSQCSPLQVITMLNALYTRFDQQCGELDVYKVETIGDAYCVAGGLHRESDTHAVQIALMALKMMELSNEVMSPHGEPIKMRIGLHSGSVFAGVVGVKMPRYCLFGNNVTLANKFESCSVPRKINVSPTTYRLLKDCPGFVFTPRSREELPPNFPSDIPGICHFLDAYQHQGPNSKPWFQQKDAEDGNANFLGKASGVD
T1 sequence (P20595 1-619): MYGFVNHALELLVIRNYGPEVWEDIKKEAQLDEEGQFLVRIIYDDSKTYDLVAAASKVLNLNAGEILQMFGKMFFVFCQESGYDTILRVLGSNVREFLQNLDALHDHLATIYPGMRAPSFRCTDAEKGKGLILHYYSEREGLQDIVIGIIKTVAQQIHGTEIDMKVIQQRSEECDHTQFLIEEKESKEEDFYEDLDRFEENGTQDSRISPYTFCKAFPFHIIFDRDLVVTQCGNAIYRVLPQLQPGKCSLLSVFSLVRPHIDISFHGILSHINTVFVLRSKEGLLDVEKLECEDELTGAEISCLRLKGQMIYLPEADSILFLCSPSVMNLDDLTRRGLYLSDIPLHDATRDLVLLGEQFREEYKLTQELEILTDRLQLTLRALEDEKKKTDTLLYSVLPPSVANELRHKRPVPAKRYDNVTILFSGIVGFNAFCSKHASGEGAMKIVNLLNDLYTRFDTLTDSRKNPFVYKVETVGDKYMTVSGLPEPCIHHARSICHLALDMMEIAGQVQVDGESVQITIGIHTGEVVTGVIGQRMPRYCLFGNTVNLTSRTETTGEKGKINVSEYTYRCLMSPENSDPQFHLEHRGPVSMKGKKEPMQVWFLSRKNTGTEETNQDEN
Test: Effect on a recombinant guanylate cyclase reporter cell line
Format: cell-based
Settings: MEC=minimum effective concentration; in some cases as mean values for individual determinations
Protocol: B-2. Effect on a Recombinant Guanylate Cyclase Reporter Cell Line
The cellular activity of the compounds of the invention is determined using a recombinant guanylate cyclase reporter cell line, as described in F. Wunder et al., Anal Biochem. 339, 104-112 (2005).
Representative MEC values (MEC=minimum effective concentration) for the compounds of the invention are shown in the table below (in some cases as mean values for individual determinations): […]

Row | SMILES | MEC [µM]
1 | CCC(C)(N)CNC(=O)c1c(C)nc2c(OCc3c(F)cccc3F)cc(-c3cccnc3)cn12 (racemic) [Example 1, rac-N-(2-Amino-2-methylbutyl)-8-[(2,6-difluorobenzyl)oxy]-2-methyl-6-(pyridin-3-yl)imidazo[1,2-a]pyridine-3-carboxamide] | 10
2 | CCC(C)(N)CNC(=O)c1c(C)nc2c(OCc3c(F)cccc3F)cc(C3CC3)cn12.Cl (racemic) [Example 2, rac-N-(2-Amino-2-methylbutyl)-6-cyclopropyl-8-[(2,6-difluorobenzyl)oxy]-2-methylimidazo[1,2-a]pyridine-3-carboxamide hydrochloride] | 1.0
3 | CCC(C)(N)CNC(=O)c1c(C)nc2c(OCc3c(F)cccc3F)cc(-n3cccn3)cn12.Cl (racemic) [Example 3, rac-N-(2-Amino-2-methylbutyl)-8-[(2,6-difluorobenzyl)oxy]-2-methyl-6-(1H-pyrazol-1-yl)imidazo[1,2-a]pyridine-3-carboxamide hydrochloride] | 3.0
4 | CCC(C)(N)CNC(=O)c1c(C)nc2c(OCc3c(F)cccc3F)cc(COC)cn12.Cl (racemic) [Example 4, rac-N-(2-Amino-2-methylbutyl)-8-[(2,6-difluorobenzyl)oxy]-6-(methoxymethyl)-2-methylimidazo[1,2-a]pyridine-3-carboxamide hydrochloride] | 3.0
5 | CCC(C)(N)CNC(=O)c1c(C)nc2c(OCc3c(F)cccc3F)cc(OC(F)F)cn12 (racemic) [Example 5, rac-N-(2-Amino-2-methylbutyl)-8-[(2,6-difluorobenzyl)oxy]-6-(difluoromethoxy)-2-methylimidazo[1,2-a]pyridine-3-carboxamide] | 3.0
6 | CCC(C)(N)CNC(=O)c1c(C)nc2c(OCc3c(F)cccc3F)cc(-c3cnn(C)c3)cn12 (racemic) [Example 6, rac-N-(2-Amino-2-methylbutyl)-8-[(2,6-difluorobenzyl)oxy]-2-methyl-6-(1-methyl-1H-pyrazol-4-yl)imidazo[1,2-a]pyridine-3-carboxamide] | 10
7 | CCC(C)(N)CNC(=O)c1c(C)nc2c(OCc3c(F)cccc3F)cc(-c3cnco3)cn12 (racemic) [Example 7, rac-N-(2-Amino-2-methylbutyl)-8-[(2,6-difluorobenzyl)oxy]-2-methyl-6-(1,3-oxazol-5-yl)imidazo[1,2-a]pyridine-3-carboxamide] | 1.0
8 | CCC(C)(N)CNC(=O)c1c(COC)nc2c(OCc3c(F)cccc3F)cc(C)cn12.Cl (racemic) [Example 8, rac-N-(2-Amino-2-methylbutyl)-8-[(2,6-difluorobenzyl)oxy]-2-(methoxymethyl)-6-methylimidazo[1,2-a]pyridine-3-carboxamide hydrochloride] | 10
9 | CCC(C)(N)CNC(=O)c1c(Cl)nc2c(OCc3c(F)cccc3F)cc(C)cn12 (racemic) [Example 20] | 0.07
10 | CCCC(C)(N)CNC(=O)c1c(Cl)nc2c(OCc3c(F)cccc3F)cc(C)cn12 (racemic) [Example 23, rac-N-(2-Amino-2-methylpentyl)-2-chloro-8-[(2,6-difluorobenzyl)oxy]-6-methylmidazo[1,2-a]pyridine-3-carboxamide] | 0.1
11 | Cc1cc(OCc2c(F)cccc2F)c2nc(C)c(C(=O)NCC(C)(N)CC[Si](C)(C)C)n2c1 (single isomer, unassigned; enantiomer a) [Example 13, ent-N-[2-Amino-2-methyl-4-(trimethylsilyl)butyl]-8-[(2,6-difluorobenzyl)oxy]-2,6-dimethylimidazo[1,2-a]pyridine-3-carboxamide (enantiomer A)] | 0.3
12 | Cc1cc(OCc2c(F)cccc2F)c2nc(C)c(C(=O)NCC(C)(N)CCC[Si](C)(C)C)n2c1 (single isomer, unassigned; enantiomer a) [Example 15, ent-N-[2-Amino-2-methyl-5-(trimethylsilyl)pentyl]-8-[(2,6-difluorobenzyl)oxy]-2,6-dimethylimidazo[1,2-a]pyridine-3-carboxamide (enantiomer A)] | 0.3
13 | CCC(C)(N)CNC(=O)c1c(Cl)nc2c(OCc3c(F)cccc3F)cc(C)cn12 (single isomer, unassigned; enantiomer a) [Example 21, ent-N-(2-Amino-2-methylbutyl)-2-chloro-8-[(2,6-difluorobenzyl)oxy]-6-methylimidazo[1,2-a]pyridine-3-carboxamide (enantiomer A)] | 0.03
14 | CCCC(C)(N)CNC(=O)c1c(Cl)nc2c(OCc3c(F)cccc3F)cc(C)cn12 (single isomer, unassigned; enantiomer a) [Example 24, ent-N-(2-Amino-2-methylpentyl)-2-chloro-8-[(2,6-difluorobenzyl)oxy]-6-methylimidazo[1,2-a]pyridine-3-carboxamide (enantiomer A)] | 0.1
15 | Cc1cc(OCc2ncccc2F)c2nc(C)c(C(=O)NCC(C)(N)CCC(F)(F)F)n2c1 (single isomer, unassigned; enantiomer b) [Example 9, ent-N-(2-Amino-5,5,5-trifluoro-2-methylpentyl)-8-[(3-fluoropyridin-2-yl)methoxy]-2,6-dimethylimidazo[1,2-a]pyridine-3-carboxamide (enantiomer B)] | 0.3
16 | Cc1nc2c(OCc3ncccc3F)cc(Cl)cn2c1C(=O)NCC(C)(N)CCC(F)(F)F (single isomer, unassigned; enantiomer b) [Example 10, ent-N-(2-Amino-5,5,5-trifluoro-2-methylpentyl)-6-chloro-8-[(3-fluoropyridin-2-yl)methoxy]-2-methylimidazo[1,2-a]pyridine-3-carboxamide (enantiomer B)] | 0.3
17 | Cc1nc2c(OCc3ncccc3F)cccn2c1C(=O)NCC(C)(N)CCC(F)(F)F (single isomer, unassigned; enantiomer b) [Example 11, ent-N-(2-Amino-5,5,5-trifluoro-2-methylpentyl)-8-[(3-fluoropyridin-2-yl)methoxy]-2-methylimidazo[1,2-a]pyridine-3-carboxamide (enantiomer B)] | 1.0
18 | Cc1cc(OCc2c(F)cccc2F)c2nc(C)c(C(=O)NCC(C)(N)CC[Si](C)(C)C)n2c1 (single isomer, unassigned; enantiomer b) [Example 14, ent-N-[2-Amino-2-methyl-4-(trimethylsilyl)butyl]-8-[(2,6-difluorobenzyl)oxy]-2,6-dimethylimidazo[1,2-a]pyridine-3-carboxamide (enantiomer B)] | 0.2
19 | Cc1cc(OCc2c(F)cccc2F)c2nc(C)c(C(=O)NCC(C)(N)CCC[Si](C)(C)C)n2c1 (single isomer, unassigned; enantiomer b) [Example 16, ent-N-[2-Amino-2-methyl-5-(trimethylsilyl)pentyl]-8-[(2,6-difluorobenzyl)oxy]-2,6-dimethylimidazo[1,2-a]pyridine-3-carboxamide (enantiomer B)] | 1.0
20 | Cc1cc(OCc2c(F)cccc2F)c2nc(C3CC(F)(F)C3)c(C(=O)NCC(C)(N)CCC(F)(F)F)n2c1 (single isomer, unassigned; enantiomer b) [Example 17, ent-N-(2-Amino-5,5,5-trifluoro-2-methylpentyl)-8-[(2,6-difluorobenzyl)oxy]-2-(3,3-difluorocyclobutyl)-6-methylimidazo[1,2-a]pyridine-3-carboxamide (enantiomer B)] | 3.0
21 | Cc1cc(OCc2c(F)cccc2F)c2nc(C(C)C)c(C(=O)NCC(C)(N)CCC(F)(F)F)n2c1 (single isomer, unassigned; enantiomer b) [Example 18, ent-N-(2-Amino-5,5,5-trifluoro-2-methylpentyl)-8-[(2,6-difluorobenzyl)oxy]-2-isopropyl-6-methylimidazo[1,2-a]pyridine-3-carboxamide (enantiomer B)] | 2.0
